Experimental data: BindingDB's records for doi:10.1021/ml400168h (Merck Research Laboratories, 2013)

What follows are compounds tested against Sterol O-acyltransferase 1 / ACAT1 (Homo sapiens) (UniProt P35610) (assay: Inhibition of human ACAT1).
Sequence of Sterol O-acyltransferase 1 / ACAT1 (Homo sapiens) (P35610 whole entry, looked up): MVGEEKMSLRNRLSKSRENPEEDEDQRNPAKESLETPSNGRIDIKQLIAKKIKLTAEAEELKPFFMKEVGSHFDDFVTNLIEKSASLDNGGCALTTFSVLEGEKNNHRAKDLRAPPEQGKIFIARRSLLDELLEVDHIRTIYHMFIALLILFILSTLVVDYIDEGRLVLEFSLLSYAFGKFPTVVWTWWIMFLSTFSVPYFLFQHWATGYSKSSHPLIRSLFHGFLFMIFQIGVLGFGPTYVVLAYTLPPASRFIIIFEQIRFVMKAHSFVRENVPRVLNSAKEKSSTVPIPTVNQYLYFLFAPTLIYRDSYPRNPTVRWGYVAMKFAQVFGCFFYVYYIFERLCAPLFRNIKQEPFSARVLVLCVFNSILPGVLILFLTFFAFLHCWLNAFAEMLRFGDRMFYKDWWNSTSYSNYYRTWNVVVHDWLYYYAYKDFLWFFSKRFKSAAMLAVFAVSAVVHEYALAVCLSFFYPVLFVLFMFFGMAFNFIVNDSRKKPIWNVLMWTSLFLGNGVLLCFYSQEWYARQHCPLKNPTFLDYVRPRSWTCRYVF
`O=C(O)[C@H]1CC[C@H](Oc2ccc(-c3ccc(-c4nc5ccc(F)cc5[nH]4)cn3)cn2)CC1` was tested, and the IC50 was > 10 µM. In the case of `O=C(O)[C@H]1CC[C@@H](Oc2ccc(-c3ccc(-c4nc5ccc(F)cc5[nH]4)cn3)cn2)CC1`, the IC50 is reported as > 10 µM. `O=C(O)[C@H]1CC[C@H](Oc2ccc(-c3ccc(-c4nc5ccccc5[nH]4)cn3)cn2)CC1` gave an IC50 of 6.07 µM. With `O=C(O)[C@H]1CC[C@@H](Oc2ccc(-c3ccc(-c4nc5ccccc5[nH]4)cn3)cn2)CC1` the IC50 was 8.08 µM. With `COc1ccc2[nH]c(-c3ccc(-c4ccc(O[C@H]5CC[C@H](C(=O)O)CC5)nc4)nc3)nc2n1` the IC50 was 4.9 µM. Compound `COc1ccc2[nH]c(-c3ccc(-c4ccc(O[C@H]5CC[C@@H](C(=O)O)CC5)nc4)nc3)nc2n1` has an IC50 of 2.48 µM. For `CS(=O)(=O)c1ccc2nc(-c3ccc(-c4ccc(O[C@H]5CC[C@H](C(=O)O)CC5)nc4)nc3)[nH]c2c1`, the IC50 was > 10 µM. `CS(=O)(=O)c1ccc2nc(-c3ccc(-c4ccc(O[C@H]5CC[C@@H](C(=O)O)CC5)nc4)nc3)[nH]c2c1` was tested, and the IC50 was > 10 µM. `O=C(O)[C@H]1CC[C@@H](Oc2ccc(-c3ccc(-c4nc5ccc(OC(F)(F)F)cc5[nH]4)cn3)cn2)CC1` showed an IC50 of 0.772 µM. For `N#Cc1ccc2nc(-c3ccc(-c4ccc(O[C@H]5CC[C@H](C(=O)O)CC5)nc4)nc3)[nH]c2c1`, the IC50 was > 10 µM. `N#Cc1ccc2nc(-c3ccc(-c4ccc(O[C@H]5CC[C@@H](C(=O)O)CC5)nc4)nc3)[nH]c2c1` was tested, and the IC50 was > 10 µM. For `O=C(O)[C@H]1CC[C@H](Oc2ccc(-c3ccc(-c4nc5cc(F)c(F)cc5[nH]4)cn3)cn2)CC1`, the IC50 was 8.44 µM. For `O=C(O)[C@H]1CC[C@@H](Oc2ccc(-c3ccc(-c4nc5cc(F)c(F)cc5[nH]4)cn3)cn2)CC1`, the IC50 was > 10 µM. With `O=C(O)C[C@H]1CC[C@H](c2ccc(-c3ccc(-c4nc5ccc(Cl)cc5[nH]4)cn3)cc2)CC1` the IC50 was 0.167 µM. Work on `O=C(O)C[C@H]1CC[C@H](c2ccc(-c3ccc(-c4nc5ccc(C(F)(F)F)cc5[nH]4)cn3)cc2)CC1` yielded an IC50 of 0.293 µM. For `O=C(O)[C@H]1CC[C@H](Oc2ccc(-c3ccc(-c4nc5ccc(Cl)cc5[nH]4)cn3)cn2)CC1`, the IC50 was 1.34 µM. `O=C(O)[C@H]1CC[C@@H](Oc2ccc(-c3ccc(-c4nc5ccc(Cl)cc5[nH]4)cn3)cn2)CC1` gave an IC50 of 3.53 µM. `O=C(O)[C@H]1CC[C@H](Oc2ccc(-c3ccc(-c4nc5ccc(C(F)(F)F)cc5[nH]4)cn3)cn2)CC1` was tested, and the IC50 was 1.23 µM. In the case of `O=C(O)[C@H]1CC[C@@H](Oc2ccc(-c3ccc(-c4nc5ccc(C(F)(F)F)cc5[nH]4)cn3)cn2)CC1`, the IC50 is reported as 1.09 µM.
